Experiment [1] has as its target T1, MR (Homo sapiens, UniProt P08235).
T1 construct: host or cells: HEK293T
T1 sequence (P08235 1-984): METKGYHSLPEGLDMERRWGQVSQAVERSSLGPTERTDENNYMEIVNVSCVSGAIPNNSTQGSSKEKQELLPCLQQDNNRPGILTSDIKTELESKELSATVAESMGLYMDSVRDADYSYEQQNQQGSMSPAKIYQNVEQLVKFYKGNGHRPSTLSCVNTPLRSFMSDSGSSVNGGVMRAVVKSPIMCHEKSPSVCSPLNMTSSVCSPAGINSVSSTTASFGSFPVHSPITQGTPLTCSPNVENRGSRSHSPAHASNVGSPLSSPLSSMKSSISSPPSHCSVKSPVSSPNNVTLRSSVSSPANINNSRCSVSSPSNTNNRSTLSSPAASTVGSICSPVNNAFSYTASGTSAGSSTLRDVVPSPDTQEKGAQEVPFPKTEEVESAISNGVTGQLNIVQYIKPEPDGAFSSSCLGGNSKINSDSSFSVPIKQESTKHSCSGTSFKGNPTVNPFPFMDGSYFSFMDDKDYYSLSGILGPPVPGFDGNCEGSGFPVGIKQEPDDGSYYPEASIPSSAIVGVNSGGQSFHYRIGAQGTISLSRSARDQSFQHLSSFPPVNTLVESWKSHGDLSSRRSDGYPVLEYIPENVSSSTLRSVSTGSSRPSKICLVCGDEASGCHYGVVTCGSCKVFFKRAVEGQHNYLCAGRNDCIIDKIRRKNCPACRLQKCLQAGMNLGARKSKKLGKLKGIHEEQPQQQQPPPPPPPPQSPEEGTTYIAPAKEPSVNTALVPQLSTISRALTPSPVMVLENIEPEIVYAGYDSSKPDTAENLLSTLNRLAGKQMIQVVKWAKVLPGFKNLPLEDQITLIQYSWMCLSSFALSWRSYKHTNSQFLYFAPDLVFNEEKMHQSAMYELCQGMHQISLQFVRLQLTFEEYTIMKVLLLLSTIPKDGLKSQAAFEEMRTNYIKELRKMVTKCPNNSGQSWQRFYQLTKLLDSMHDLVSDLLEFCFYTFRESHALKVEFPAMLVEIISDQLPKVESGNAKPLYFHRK
In words: Luciferase reporter assay for MR (HEK293T cells). In kind it is cell-based. As to conditions: 0.4–10 μM, 5 nM aldosterone. The procedure:
(§1) Luciferase Reporter Assays for PR, GR, and MR
(§2) PC3, HeLa, and HEK293T cells were cultured using 5% CSS RPMI-1640, 5% CSS RPMI-1640 and 10% FBS DMEM media in 96-well plates for 24 h, respectively. For PR induction, PC3 (1 × 10^4 cells/well) were transfected with 50 ng pcDNA3-PRB (#89130, Addgene), 24 ng pGL4.36[luc2P MMTV Hygro] (Promega) and 5 ng Renilla using HG-TransGeneTM transfection reagent (#TG-10012, Genomeditech) for 4 h. For GR induction, Hela (1 × 10^4 cells/well) were transfected with 71 ng pCMV -GR11 (#89105, Addgene), 24 ng pGL4.36[luc2P MMTV Hygro] (Promega) and 5 ng Renilla using lip3000 transfection reagent (#L3000075, Thermofisher) for 24 h. For MR induction, HEK293T (1 × 10^4 cells/well) were transfected with 71 ng pCMV-MR gifted by Liu et al. 28, 24 ng of pGL4.36[luc2P MMTV Hygro] (Promega) and 5 ng Renilla using lip3000 transfec tion reagent for 24 h. For the antagonistic models, 10 nM /well progesterone for PC3 cells , 1 nM/well dexamethasone for HeLa, and 5 nM/well aldosterone for HEK293T cells were added to stimulate the cells. Meanwhile, each cell line was treated with a series concentration of compounds (0.4, 2, and 10 μM). For the agonistic models, the cells were directly treated with the compounds without any hormones. Endogenous hormones progesterone, dexamethasone, and aldosterone were considered as agonists for PR, GR, and MR, respectively. The luciferase activities were assessed using the Dual-Glo Luciferase system (#E1910, Promega). […]
Background: In a reporter assay the amount or activity of a reporter protein is the signal.

The target in experiment [2] is T2, GR (Homo sapiens, UniProt P04150).
T2 construct: host or cells: HeLa
T2 sequence (P04150 1-777): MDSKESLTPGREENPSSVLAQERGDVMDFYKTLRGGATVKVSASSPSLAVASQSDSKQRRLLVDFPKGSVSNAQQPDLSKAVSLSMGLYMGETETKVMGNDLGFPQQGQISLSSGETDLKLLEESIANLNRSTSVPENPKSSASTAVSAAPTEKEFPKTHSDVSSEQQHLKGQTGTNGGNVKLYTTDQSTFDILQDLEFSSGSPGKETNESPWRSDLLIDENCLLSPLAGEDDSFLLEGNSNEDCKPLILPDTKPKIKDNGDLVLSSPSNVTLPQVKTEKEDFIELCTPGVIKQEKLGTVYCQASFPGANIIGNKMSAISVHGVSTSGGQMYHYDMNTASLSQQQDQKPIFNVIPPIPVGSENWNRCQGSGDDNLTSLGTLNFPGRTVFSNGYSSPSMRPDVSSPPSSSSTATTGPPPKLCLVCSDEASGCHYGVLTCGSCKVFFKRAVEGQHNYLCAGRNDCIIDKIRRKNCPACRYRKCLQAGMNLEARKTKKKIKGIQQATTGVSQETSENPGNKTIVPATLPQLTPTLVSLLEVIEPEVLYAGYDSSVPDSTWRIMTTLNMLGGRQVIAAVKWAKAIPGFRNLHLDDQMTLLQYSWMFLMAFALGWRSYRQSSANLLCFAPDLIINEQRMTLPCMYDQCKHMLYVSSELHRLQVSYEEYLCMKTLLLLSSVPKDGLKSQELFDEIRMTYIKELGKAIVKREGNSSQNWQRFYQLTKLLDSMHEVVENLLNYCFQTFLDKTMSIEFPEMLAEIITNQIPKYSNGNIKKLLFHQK
Put plainly: Luciferase reporter assay for GR (HeLa cells). It counts as cell-based. As to conditions: 0.4 μM, 1 nM dexamethasone. How it is done:
calculating volume (V= 0.5 × L × W2). Finally, the mice were sacrificed and the tumors were harvested for hematoxylin and eosin (H&E) staining.
as §1
Addgene), 24 ng pGL4.36[luc2P MMTV Hygro] (Promega) and 5 ng Renilla using HG- […]
Addgene), 24 ng pGL4.36[luc2P MMTV Hygro] (Promega) and 5 ng Renilla using lip3000 transfection reagent (#L3000075, Thermofisher) for 24 h. For MR induction, HEK293T (1 × 10^4 cells/well) were transfected with 71 ng pCMV-MR gifted by Liu et al. 28, 24 ng of pGL4.36[luc2P MMTV Hygro] (Promega) and 5 ng Renilla using lip3000 transfec tion reagent for 24 h. For the antagonistic models, 10 nM /well progesterone for PC3 cells , 1 nM/well dexamethasone for HeLa, and 5 nM/well aldosterone for HEK293T cells were added to stimulate the cells. Meanwhile, each cell line was treated […]
For the agonistic models, the cells were directly treated with the compounds without any hormones. […]
hormones progesterone, dexamethasone, and aldosterone were considered as agonists for PR, GR, and MR, respectively. The luciferase activities were assessed using the Dual-Glo Luciferase system (#E1910, Promega).
Cell Cycle and Apoptosis for LNCaP cells
LNCaP were cultured in 6-well plate with 5× 10^5 cells/well, after incubated at 37 °C for […]
Cell cycle were determined after 48 h incubation by Cell Cycle Staining Kit (#CCS012, MULTI SCIENCES) using […]

Experiment [3] deals with T3, PR (Homo sapiens, UniProt P06401).
T3 construct: host or cells: PC3
T3 sequence (P06401 1-933): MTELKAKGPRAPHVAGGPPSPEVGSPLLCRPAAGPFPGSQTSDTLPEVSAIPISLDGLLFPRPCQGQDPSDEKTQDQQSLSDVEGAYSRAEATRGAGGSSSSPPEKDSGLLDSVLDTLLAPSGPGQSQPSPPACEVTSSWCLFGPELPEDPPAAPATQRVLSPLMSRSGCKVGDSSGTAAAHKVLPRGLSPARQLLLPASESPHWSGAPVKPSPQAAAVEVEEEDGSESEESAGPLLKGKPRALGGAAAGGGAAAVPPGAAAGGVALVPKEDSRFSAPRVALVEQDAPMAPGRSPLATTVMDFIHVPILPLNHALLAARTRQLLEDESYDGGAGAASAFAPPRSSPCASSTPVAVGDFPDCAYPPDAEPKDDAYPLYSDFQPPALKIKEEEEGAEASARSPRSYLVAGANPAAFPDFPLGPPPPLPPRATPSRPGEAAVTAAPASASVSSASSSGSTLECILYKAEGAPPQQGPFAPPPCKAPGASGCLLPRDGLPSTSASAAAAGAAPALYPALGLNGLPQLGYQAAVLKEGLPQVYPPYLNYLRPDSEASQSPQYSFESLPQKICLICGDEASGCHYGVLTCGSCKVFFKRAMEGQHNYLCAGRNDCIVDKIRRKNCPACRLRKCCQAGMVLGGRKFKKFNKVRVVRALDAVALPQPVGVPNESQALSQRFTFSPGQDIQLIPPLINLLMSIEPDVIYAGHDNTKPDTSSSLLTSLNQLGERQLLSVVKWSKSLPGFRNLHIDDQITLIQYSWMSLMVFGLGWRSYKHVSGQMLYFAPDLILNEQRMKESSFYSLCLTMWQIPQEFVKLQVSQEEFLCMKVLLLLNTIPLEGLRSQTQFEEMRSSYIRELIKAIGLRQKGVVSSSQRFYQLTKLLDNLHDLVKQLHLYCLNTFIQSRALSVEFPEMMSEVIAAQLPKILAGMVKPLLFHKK
In words: Luciferase reporter assay for PR (PC3 cells). As to conditions: 0.4 μM, 10 nM progesterone. In kind it is cell-based. The procedure: as §1, §2

Experiment [4] concerns the target wild type androgen receptor ligand-binding domain (AR LBD) (human). Put plainly: cross-linking + other: SAXS; chemical cross-linking coupled with mass spectrometry (CXMS) of purified AR LBD; ensemble refinement against the cross-link restraints; dimer to monomer ratio fitted; with and without M17-B15.

We go through 3 molecules from publication PMC10141604, “Small-Molecule Inhibition of Androgen Receptor Dimerization as a Strategy against Prostate Cancer” (ACS Central Science, 2023).

With `CC(=O)S[C@@H]1CC2=CC(=O)CC[C@]2(C)[C@H]2CC[C@@]3(C)[C@@H](CC[C@@]34CCC(=O)O4)[C@H]12` [abbolactone], the “MR antagonistic activity” value in experiment [1] was “potent”.
Regarding `CC#C[C@]1(O)CC[C@H]2[C@@H]3CCC4=CC(=O)CCC4=C3[C@@H](c3ccc(N(C)C)cc3)C[C@@]21C` [mifepristone], the GR antagonistic activity in experiment [2] is recorded as > 90%. Besides, in experiment [3], the PR antagonistic activity is given as > 90%.
Consider “wild type androgen receptor ligand-binding domain (AR LBD) (domain or fragment)”, for which, in experiment [4], the proportion of the dimer (with M17-B15) turned out to be 15% and the proportion of the dimer (without M17-B15) is 20%.
